# According to US12667538B2, “Vilazodone pharmaceutical composition, preparation method therefor and use thereof” (SHANGHAI YONSUN BIOTECHNOLOGY CO., LTD., priority 2020, dated 2026):
# Assay: Particle size and distribution on a laser particle analyzer
# Type: physicochemical
# Conditions: drug substance used for formulas 14-23
# Description: According to formula 1 shown in Table 1, the raw and auxiliary materials were weighed out and well mixed to obtain the suspension. The particle size was measured on a laser particle analyzer (parameter settings: dispersion medium: water; refractive index of dispersion medium: 1.333; absorbance of sample material: 0.05; refractive index of sample material: 1.711). The particle size morphology of the particles in the ground suspension was observed under a polarized light microscope. The particle size morphology of the solid particles of vilazodone in the suspension under the polarized light microscope is shown in FIG. 2.
# The particle size of formulas 3, 4 and 5 and the distribution thereof were measured on a laser particle analyzer using the following parameter settings: dispersion medium: water; refractive index of dispersion medium: 1.333; absorbance of sample material: 0.05; refractive index of sample material: 1.711. The particle size and the distribution of formula 6 were measured on a nano particle size analyzer (NICOMP Particle Sizing Systems) using the following parameter settings: dispersion medium: water; refractive index of dispersion medium: 1.333; viscosity: 0.933 cp; temperature: 23° C.; luminous intensity setting: 300 kHz.
# The particle size of formula 7 and the distribution thereof were measured on a laser particle analyzer using the following parameter settings: dispersion medium: water; refractive index of dispersion medium: 1.333; absorbance of sample material: 0.05; refractive index of sample material: 1.711. […]
# According to the formulas shown in Table 12, the drug substance of different particle sizes and auxiliary materials were weighed out and well mixed by stirring to form suspensions, and formulas 8-13 were obtained. The particle size and the distribution thereof were measured on a laser particle analyzer using the following parameter settings: dispersion medium: water; refractive index of dispersion medium: 1.333; absorbance of sample material: 0.05; refractive index of sample material: 1.711. […]
compound,measurement,value
"Cl.N#Cc1ccc2[nH]cc(CCCCN3CCN(c4ccc5oc(C(N)=O)cc5c4)CC3)c2c1 [Vilazodone hydrochloride, 2-benzofurancarboxamide, 5-[4-[4-(5-cyano-1H-indol-3-yl)butyl]-1-piperazinyl] hydrochloride (1:1)]",D10,8.4 μm
same,D50,20.6 μm
same,D90,43.9 μm
